From US20240358692A1, “TREATMENT OF SCLERODERMA” (Aisa Pharma, Inc., priority 2023, published 2024)

Tested on: participants with SSc-RP
Assay: Frequency of weekly symptomatic RP attacks (patient diary), Phase 2a Part A
Type: in vivo, human
Conditions: ITT Part A
Source text: Percent change from baseline evaluation for frequency of weekly RP attacks were or will be used as the primary efficacy variable. The sponsor-developed participant-informed diary will be used to record data. Frequency of weekly RP attacks is defined as the total number of RP attacks divided by the number of days with available diary data within the last 7 days of each dosing period then multiplied by 7. Total number of RP attacks during the last 7 days of screening period divided by the number of days with available data then multiplied by 7 will be used as baseline for the analysis of all periods. The variable will be calculated as follows: […]
Percent change from baseline evaluation for frequency of weekly RP attacks was and will be the primary efficacy endpoint. Frequency of weekly RP attacks is defined as the total number of RP attacks divided by the number of days with available diary data within the last 7 days of each dosing period then multiplied by 7. Total number of RP attacks during the last 7 days of screening period divided by the number of days with available data then multiplied by 7 will be used as baseline for the analysis of all periods.

[1] = Cilnidipine 10 mg, n=1, Excluding Outliers
[2] = Cilnidipine 10 mg, n=1, by Baseline RCS, first block (RCS <5.0)
[3] = Cilnidipine 20 mg, n=2, Excluding Outliers
[4] = Cilnidipine 20 mg, n=2, by Baseline RCS, first block (RCS <5.0)
[5] = Pooled Cilnidipine 10 mg and Cilnidipine 10 mg + Tadalafil 5 mg, n=1, by Baseline RCS, second block (RCS >5.0)
[6] = Pooled Cilnidipine 10 mg and Cilnidipine 10 mg + Tadalafil 5 mg, n=2, by Baseline RCS, first block (RCS <5.0)
[7] = Pooled Cilnidipine 10 mg and Cilnidipine 10 mg + Tadalafil 5 mg, n=3
[8] = Pooled Cilnidipine 10 mg and Cilnidipine 10 mg + Tadalafil 5 mg, n=3, Excluding Outliers
[9] = Pooled Cilnidipine 10 mg and Cilnidipine 10 mg + Tadalafil 5 mg, n=1, excluding outliers, second Baseline RCS subgroup, last 7 days of dosing
[10] = Pooled Cilnidipine 10 mg and Cilnidipine 10 mg + Tadalafil 5 mg, n=2, excluding outliers, first Baseline RCS subgroup, last 7 days of dosing
[11] = Pooled Cilnidipine 20 mg and Cilnidipine 20 mg + Tadalafil 5 mg, n=1, by Baseline RCS, second block (RCS >5.0)
[12] = Pooled Cilnidipine 20 mg and Cilnidipine 20 mg + Tadalafil 5 mg, n=3, by Baseline RCS, first block (RCS <5.0)
[13] = Pooled Cilnidipine 20 mg and Cilnidipine 20 mg + Tadalafil 5 mg, n=4
[14] = Pooled Cilnidipine 20 mg and Cilnidipine 20 mg + Tadalafil 5 mg, n=4, Excluding Outliers
[15] = Pooled Cilnidipine 20 mg and Cilnidipine 20 mg + Tadalafil 5 mg, n=1, excluding outliers, second Baseline RCS subgroup, last 7 days of dosing
[16] = Pooled Cilnidipine 20 mg and Cilnidipine 20 mg + Tadalafil 5 mg, n=3, excluding outliers, first Baseline RCS subgroup, last 7 days of dosing
[17] = Pooled Cilnidipine (10 or 20 mg), n=3
[18] = Pooled Cilnidipine (10 or 20 mg), n=3, Excluding Outliers
[19] = Pooled Cilnidipine (10 or 20 mg), n=3, by Baseline RCS, first block (RCS <5.0)
[20] = Pooled Cilnidipine arms, n=3, excluding outliers, first Baseline RCS subgroup, last 7 days of dosing
[21] = cilnidipine 10 mg daily, n=1, excluding outliers, first Baseline RCS subgroup, last 7 days of dosing
[22] = cilnidipine 20 mg daily, n=2, excluding outliers, first Baseline RCS subgroup, last 7 days of dosing

**Q.** Which results are given for COCCOC(=O)C1=C(C)NC(C)=C(C(=O)OC/C=C/c2ccccc2)C1c1cccc([N+](=O)[O-])c1 (centres unmarked) [Cilnidipine]?
**A.** Weekly Symptomatic RP Attacks Change from Baseline, Mean (Cilnidipine 10 mg, n=1): −7.00; Weekly Symptomatic RP Attacks Change from Baseline, Median (Cilnidipine 10 mg, n=1): −7.00; Weekly Symptomatic RP Attacks Percent Change from Baseline, Mean (Cilnidipine 10 mg, n=1): −33.33%; Weekly Symptomatic RP Attacks Percent Change from Baseline, Median (Cilnidipine 10 mg, n=1): −33.33%; Weekly Symptomatic RP Attacks, Mean (Cilnidipine 10 mg, n=1): 14.00; Weekly Symptomatic RP Attacks, Median (Cilnidipine 10 mg, n=1): 14.00; Weekly Symptomatic RP Attacks Change from Baseline, Mean [1]: −7.00; Weekly Symptomatic RP Attacks Change from Baseline, Median [1]: −7.00; Weekly Symptomatic RP Attacks Percent Change from Baseline, Mean [1]: −33.33%; Weekly Symptomatic RP Attacks Percent Change from Baseline, Median [1]: −33.33%; Weekly Symptomatic RP Attacks, Mean [1]: 14.00; Weekly Symptomatic RP Attacks, Median [1]: 14.00; Weekly Symptomatic RP Attacks Change from Baseline, Mean [2]: −7.00; Weekly Symptomatic RP Attacks Change from Baseline, Median [2]: −7.00; Weekly Symptomatic RP Attacks Percent Change from Baseline, Mean [2]: −33.33%; Weekly Symptomatic RP Attacks Percent Change from Baseline, Median [2]: −33.33%; Weekly Symptomatic RP Attacks, Mean [2]: 14.00; Weekly Symptomatic RP Attacks, Median [2]: 14.00; Weekly Symptomatic RP Attacks Change from Baseline, Mean (Cilnidipine 20 mg, n=2): −4.50; Weekly Symptomatic RP Attacks Change from Baseline, Median (Cilnidipine 20 mg, n=2): −4.50; Weekly Symptomatic RP Attacks Percent Change from Baseline, Mean (Cilnidipine 20 mg, n=2): −33.73%; Weekly Symptomatic RP Attacks Percent Change from Baseline, Median (Cilnidipine 20 mg, n=2): −33.73%; Weekly Symptomatic RP Attacks, Mean (Cilnidipine 20 mg, n=2): 8.00; Weekly Symptomatic RP Attacks, Median (Cilnidipine 20 mg, n=2): 8.00; Weekly Symptomatic RP Attacks Change from Baseline, Mean [3]: −4.50; Weekly Symptomatic RP Attacks Change from Baseline, Median [3]: −4.50; Weekly Symptomatic RP Attacks Percent Change from Baseline, Median [3]: −33.73%; Weekly Symptomatic RP Attacks, Mean [3]: 8.00; Weekly Symptomatic RP Attacks, Median [3]: 8.00; Weekly Symptomatic RP Attacks Change from Baseline, Mean [4]: −4.50; Weekly Symptomatic RP Attacks Change from Baseline, Median [4]: −4.50; Weekly Symptomatic RP Attacks Percent Change from Baseline, Mean [4]: −33.73%; Weekly Symptomatic RP Attacks Percent Change from Baseline, Median [4]: −33.73%; Weekly Symptomatic RP Attacks, Mean [4]: 8.00; Weekly Symptomatic RP Attacks, Median [4]: 8.00; Weekly Symptomatic RP Attacks Change from Baseline, Mean [5]: −3.00; Weekly Symptomatic RP Attacks Change from Baseline, Median [5]: −3.00; Weekly Symptomatic RP Attacks Percent Change from Baseline, Mean [5]: −42.86%; Weekly Symptomatic RP Attacks Percent Change from Baseline, Median [5]: −42.86%; Weekly Symptomatic RP Attacks, Mean [5]: 4.00; Weekly Symptomatic RP Attacks, Median [5]: 4.00; Weekly Symptomatic RP Attacks Change from Baseline, Mean [6]: −5.50; Weekly Symptomatic RP Attacks Change from Baseline, Median [6]: −5.50; Weekly Symptomatic RP Attacks Percent Change from Baseline, Mean [6]: −38.89%; Weekly Symptomatic RP Attacks Percent Change from Baseline, Median [6]: −38.89%; Weekly Symptomatic RP Attacks, Mean [6]: 9.50; Weekly Symptomatic RP Attacks, Median [6]: 9.50; Weekly Symptomatic RP Attacks Change from Baseline, Mean [7]: −4.67; Weekly Symptomatic RP Attacks Change from Baseline, Median [7]: −4.00; Weekly Symptomatic RP Attacks Percent Change from Baseline, Mean [7]: −40.21%; Weekly Symptomatic RP Attacks Percent Change from Baseline, Median [7]: −42.86%; Weekly Symptomatic RP Attacks, Mean [7]: 7.67; Weekly Symptomatic RP Attacks, Median [7]: 5.00; Weekly Symptomatic RP Attacks Change from Baseline, Mean [8]: −4.67; Weekly Symptomatic RP Attacks Change from Baseline, Median [8]: −4.00; Weekly Symptomatic RP Attacks Percent Change from Baseline, Mean [8]: −40.21%; Weekly Symptomatic RP Attacks Percent Change from Baseline, Median [8]: −42.86%; Weekly Symptomatic RP Attacks, Mean [8]: 7.67; Weekly Symptomatic RP Attacks, Median [8]: 5.00; Weekly Symptomatic RP Attacks Change from Baseline, Mean [9]: −3.00; Weekly Symptomatic RP Attacks Change from Baseline, Median [9]: −3.00; Weekly Symptomatic RP Attacks Percent Change from Baseline, Mean [9]: −42.86%; Weekly Symptomatic RP Attacks Percent Change from Baseline, Median [9]: −42.86%; Weekly Symptomatic RP Attacks, Mean [9]: 4.00; Weekly Symptomatic RP Attacks, Median [9]: 4.00; Weekly Symptomatic RP Attacks Change from Baseline, Mean [10]: −5.50; Weekly Symptomatic RP Attacks Change from Baseline, Median [10]: −5.50; Weekly Symptomatic RP Attacks Percent Change from Baseline, Mean [10]: −38.89%; Weekly Symptomatic RP Attacks Percent Change from Baseline, Median [10]: −38.89%; Weekly Symptomatic RP Attacks, Mean [10]: 9.50; Weekly Symptomatic RP Attacks, Median [10]: 9.50; Weekly Symptomatic RP Attacks Change from Baseline, Mean [11]: −0.50; Weekly Symptomatic RP Attacks Change from Baseline, Median [11]: −0.50; Weekly Symptomatic RP Attacks Percent Change from Baseline, Mean [11]: −4.76%; Weekly Symptomatic RP Attacks Percent Change from Baseline, Median [11]: −4.76%; Weekly Symptomatic RP Attacks, Mean [11]: 10.00; Weekly Symptomatic RP Attacks, Median [11]: 10.00; Weekly Symptomatic RP Attacks Change from Baseline, Mean [12]: −4.67; Weekly Symptomatic RP Attacks Change from Baseline, Median [12]: −5.00; Weekly Symptomatic RP Attacks Percent Change from Baseline, Mean [12]: −31.75%; Weekly Symptomatic RP Attacks Percent Change from Baseline, Median [12]: −28.57%; Weekly Symptomatic RP Attacks, Mean [12]: 9.67; Weekly Symptomatic RP Attacks, Median [12]: 11.00; Weekly Symptomatic RP Attacks Change from Baseline, Mean [13]: −3.63; Weekly Symptomatic RP Attacks Change from Baseline, Median [13]: −3.50; Weekly Symptomatic RP Attacks Percent Change from Baseline, Mean [13]: −25.00%; Weekly Symptomatic RP Attacks Percent Change from Baseline, Median [13]: −28.17%; Weekly Symptomatic RP Attacks, Mean [13]: 9.75; Weekly Symptomatic RP Attacks, Median [13]: 10.50; Weekly Symptomatic RP Attacks Change from Baseline, Mean [14]: −3.63; Weekly Symptomatic RP Attacks Change from Baseline, Median [14]: −3.50; Weekly Symptomatic RP Attacks Percent Change from Baseline, Mean [14]: −25.00%; Weekly Symptomatic RP Attacks Percent Change from Baseline, Median [14]: −28.17%; Weekly Symptomatic RP Attacks, Mean [14]: 9.75; Weekly Symptomatic RP Attacks, Median [14]: 10.50; Weekly Symptomatic RP Attacks Change from Baseline, Mean [15]: −0.50; Weekly Symptomatic RP Attacks Change from Baseline, Median [15]: −0.50; Weekly Symptomatic RP Attacks Percent Change from Baseline, Mean [15]: −4.76%; Weekly Symptomatic RP Attacks Percent Change from Baseline, Median [15]: −4.76%; Weekly Symptomatic RP Attacks, Mean [15]: 10.00; Weekly Symptomatic RP Attacks, Median [15]: 10.00; Weekly Symptomatic RP Attacks Change from Baseline, Mean [16]: −4.67; Weekly Symptomatic RP Attacks Change from Baseline, Median [16]: −5.00; Weekly Symptomatic RP Attacks Percent Change from Baseline, Mean [16]: −31.75%; Weekly Symptomatic RP Attacks Percent Change from Baseline, Median [16]: −28.57%; Weekly Symptomatic RP Attacks, Mean [16]: 9.67; Weekly Symptomatic RP Attacks, Median [16]: 11.00; Weekly Symptomatic RP Attacks Change from Baseline, Mean [17]: −5.33; Weekly Symptomatic RP Attacks Change from Baseline, Median [17]: −7.00; Weekly Symptomatic RP Attacks Percent Change from Baseline, Mean [17]: −33.60%; Weekly Symptomatic RP Attacks Percent Change from Baseline, Median [17]: −33.33%; Weekly Symptomatic RP Attacks, Mean [17]: 10.00; Weekly Symptomatic RP Attacks, Median [17]: 11.00; Weekly Symptomatic RP Attacks Change from Baseline, Mean [18]: −5.33; Weekly Symptomatic RP Attacks Change from Baseline, Median [18]: −7.00; Weekly Symptomatic RP Attacks Percent Change from Baseline, Mean [18]: −33.60%; Weekly Symptomatic RP Attacks Percent Change from Baseline, Median [18]: −33.33%; Weekly Symptomatic RP Attacks, Mean [18]: 10.00; Weekly Symptomatic RP Attacks, Median [18]: 11.00; Weekly Symptomatic RP Attacks Change from Baseline, Mean [19]: −5.33; Weekly Symptomatic RP Attacks Change from Baseline, Median [19]: −7.00; Weekly Symptomatic RP Attacks Percent Change from Baseline, Mean [19]: −33.60%; Weekly Symptomatic RP Attacks Percent Change from Baseline, Median [19]: −33.33%; Weekly Symptomatic RP Attacks, Mean [19]: 10.00; Weekly Symptomatic RP Attacks, Median [19]: 11.00; Weekly Symptomatic RP Attacks Change from Baseline, Mean [20]: −5.33; Weekly Symptomatic RP Attacks Change from Baseline, Median [20]: −7.00; Weekly Symptomatic RP Attacks Percent Change from Baseline, Mean [20]: −33.60%; Weekly Symptomatic RP Attacks Percent Change from Baseline, Median [20]: −33.33%; Weekly Symptomatic RP Attacks, Mean [20]: 10.00; Weekly Symptomatic RP Attacks, Median [20]: 11.00; Weekly Symptomatic RP Attacks Change from Baseline, Mean [21]: −7.00; Weekly Symptomatic RP Attacks Change from Baseline, Median [21]: −7.00; Weekly Symptomatic RP Attacks Percent Change from Baseline, Mean [21]: −33.33%; Weekly Symptomatic RP Attacks Percent Change from Baseline, Median [21]: −33.33%; Weekly Symptomatic RP Attacks, Mean [21]: 14.00; Weekly Symptomatic RP Attacks, Median [21]: 14.00; Weekly Symptomatic RP Attacks Change from Baseline, Mean [22]: −4.50; Weekly Symptomatic RP Attacks Change from Baseline, Median [22]: −4.50; Weekly Symptomatic RP Attacks Percent Change from Baseline, Mean [22]: −33.73%; Weekly Symptomatic RP Attacks Percent Change from Baseline, Median [22]: −33.73%; Weekly Symptomatic RP Attacks, Mean [22]: 8.00; Weekly Symptomatic RP Attacks, Median [22]: 8.00
